Test results taken from ChEMBL document CHEMBL5260847, “Current scenario of indole derivatives with potential anti-drug-resistant cancer activity” (Eur J Med Chem, 2020).
pIC50: −log10 of the molar value. Blank lines part the entries; values can stand above or below the compound they belong to.

What was measured:
[1] = tested on: Epidermoid carcinoma cell line; experiment: Cytotoxicity activity against vincristine-resistant human Epidermoid carcinoma cell line assessed as reduction in cell growth; format: functional, cell-based
KB [2] = experiment: Cytotoxicity activity against vincristine-resistant human KB cells assessed as reduction in cell growth; format: functional, cell-based
MCF-10A = experiment: Antiproliferative activity against human MCF-10A cells assessed as reduction in cell viability measured after 48 hrs by MTT assay; format: functional, cell-based
HT-29 [3] = experiment: Antiproliferative activity against drug-sensitive human HT-29 cells assessed as reduction in cell viability by MTT assay; format: functional, cell-based
HT-29 [4] = experiment: Antiproliferative activity against human HT-29 cells assessed as reduction in cell viability celltiter-Glo assay; format: functional, cell-based
H69AR [5] = experiment: Antiproliferative activity against multidrug resistant human NCI-H69AR assessed as inhibition of cell proliferation by MTT assay; format: functional, cell-based
H69AR [6] = experiment: Antiproliferative activity against multi-drug resistant human NCI-H69AR assessed as reduction in cell viability; format: functional, cell-based
ZR-75-1 [7] = experiment: Antiproliferative activity against multi-drug resistant human ZR-75-1 cells assessed as reduction in cell viability; format: functional, cell-based
ZR-75-1 [8] = experiment: Antiproliferative activity against human ZR-75-1 cells assessed as reduction in cell viability celltiter-Glo assay; format: functional, cell-based
[9] = Selectivity index, ratio of IC50 for antiproliferative activity against human MCF-10A cells to IC50 for antiproliferative activity against […] cells by MTT assay; format: toxicity, cell-based; conditions: MCF-10A cells and IEC-6 cells, read-out: Selectivity Index
A549 [10] = experiment: Antiproliferative activity against drug-sensitive human A549 cells assessed as reduction in cell viability by MTT assay; format: functional, cell-based
IEC-6 = experiment: Antiproliferative activity against rat IEC-6 cells assessed as reduction in cell viability measured after 48 hrs by MTT assay; format: functional, cell-based; conditions: IEC-6, 48 h
HepG2 [11] = experiment: Anticancer activity against human HepG2 cells assessed as inhibition of cell growth; format: functional, cell-based
DLD-1 = experiment: Cytotoxicity against human DLD-1 cells assessed as reduction in cell viability measured after 48 hrs by SRB assay; format: functional, cell-based; conditions: DLD-1, 48 h
SW-620 = experiment: Cytotoxicity against human SW620 cells assessed as reduction in cell viability measured after 48 hrs by SRB assay; format: functional, cell-based; conditions: SW-620, 48 h
SK-OV-3 = experiment: Cytotoxicity against human SK-OV-3 cells assessed as reduction in cell viability measured after 48 hrs by SRB assay; format: functional, cell-based; conditions: SK-OV-3, 48 h
MCF7 [12] = experiment: Cytotoxicity against human MCF7 cells assessed as reduction in cell viability measured after 48 hrs by SRB assay; format: functional, cell-based; conditions: MCF7, 48 h
KB [13] = experiment: Cytotoxicity against human KB cells assessed as reduction in cell viability measured after 48 hrs by MTT assay; format: functional, cell-based
LS180 [14] = experiment: Antitumor activity against human LS180 cells xenografted in ICR mouse assessed as tumor growth inhibition at 45 mg/kg; format: functional; set-up: scale not given: the % may be the effect or the level left
LS180 [15] = experiment: Antitumor activity against human LS180 cells xenografted in ICR mouse assessed as tumor growth inhibition at 4.5 mg/kg; format: functional; set-up: scale not given: the % may be the effect or the level left
KB [16] = experiment: Antiproliferative activity against human KB cells assessed as reduction in cell growth incubated for 2 days by MTT assay; format: functional, cell-based; conditions: 48 h
[17] = Cytotoxicity against human hypertrophic scar Fibroblast cells assessed as inhibition of cell growth incubated for 2 hrs by MTT assay; format: toxicity, cell-based
[18] = Cytotoxicity against human HUVEC cells assessed as reduction in cell viability incubated for 2 hrs by MTT assay; format: toxicity, cell-based
K562/A02 = experiment: Antiproliferative activity against human K562/A02 cells assessed as reduction in cell viability measured after 2 days by MTT assay; format: functional, cell-based; conditions: K562/A02, 48 h
HeLa = experiment: Antiproliferative activity against human Hela cells assessed as reduction in cell viability measured after 48 hrs by MTT assay; format: functional, cell-based
A2780 = experiment: Antiproliferative activity against human A2780 cells assessed as inhibition of cell proliferation measured after 24 hrs by MTT assay; format: functional, cell-based; conditions: A2780, 24 h
PC-3 [19] = experiment: Antitumor activity in human PC-3 cells xenografted immunodeficient ICR mouse assessed as reduction in tumor growth at 0.5 mg/kg, ip administered for 2 weeks in presence of vinblastine; format: functional; set-up: scale not given: the % may be the effect or the level left
PC-3 [20] = experiment: Antitumor activity in human PC-3 cells xenografted immunodeficient ICR mouse assessed as reduction in tumor growth at 25 mg/kg, ip administered for 2 weeks; format: functional; set-up: scale not given: the % may be the effect or the level left
HepG2 [21] = experiment: Cytotoxicity activity against human HepG2 cells assessed as reduction in cell viability incubated for 72 hrs by MTT assay; format: functional, cell-based; conditions: HepG2, 72 h
MCF7 [22] = experiment: Cytotoxicity activity against human MCF7 cells assessed as reduction in cell viability incubated for 72 hrs by MTT assay; format: functional, cell-based; conditions: MCF7, 72 h
HT-29 [23] = experiment: Cytotoxicity activity against human HT-29 cells assessed as reduction in cell growth measured after 72 hrs by MTT assay; format: functional, cell-based; conditions: HT-29, 72 h
A549 [24] = experiment: Cytotoxicity activity against human A549 cells assessed as reduction in cell viability incubated for 72 hrs by MTT assay; format: functional, cell-based; conditions: A549, 72 h
CWR22R = experiment: Cytotoxicity activity against human 22Rv1 assessed as reduction in cell viability by MTT assay; format: functional, cell-based
PC-3 [25] = experiment: Cytotoxicity activity against human PC-3 cells assessed as reduction in cell viability by MTT assay; format: functional, cell-based

Structure (SMILES): CC[C@@]12CC(C(=O)OC)=C3N=C4C(=CC(=O)C(O)=C4OC)[C@@]34CCN([C@@H]3c5cc6c(cc5O[C@@H]3[C@H]1O)NC1=C(C(=O)OC)C[C@]3(CC)[C@@H]5O[C@@H]5CN5CC[C@@]16[C@@H]53)[C@H]42
pIC50 [1]: 5.54 | pIC50 (KB [2]): 8.00

pIC50 (HT-29 [3]): 5.23 | pIC50 (HT-29 [4]): 5.56
Structure (SMILES): O=C1Nc2ccc(Cl)cc2/C1=N/N=C/c1ccn[nH]1
pIC50 (MCF-10A): 5.47 | pIC50 (H69AR [5]): 4.80 | pIC50 (H69AR [6]): 4.78 | pIC50 (ZR-75-1 [7]): 5.86 | pIC50 (ZR-75-1 [8]): 5.86 | selectivity ratio [9]: 1.6

pIC50 (A549 [10]): 4.99 | pIC50 (HT-29 [4]): 5.14
Structure (SMILES): O=C1Nc2ccc(Cl)cc2/C1=N/N=C/c1nc(-c2ccccc2)cs1
pIC50 (H69AR [5]): 4.78 | pIC50 (H69AR [6]): 4.80 | pIC50 (ZR-75-1 [8]): 5.71 | pIC50 (IEC-6): 5.05 | selectivity ratio [9]: 1.8

pIC50 (HepG2 [11]): 6.74
Structure (SMILES): CO/N=C1\C(=O)N(Cc2cn(CCOCCN3C(=O)/C(=N/OC)c4ccccc43)nn2)c2ccccc21

Structure (SMILES): COc1ccc(C(=O)/C=C/c2nccc3c2[nH]c2ccccc23)cc1OC
pIC50 (DLD-1): 5.60 | pIC50 (SW-620): 5.00 | pIC50 (SK-OV-3): 5.30 | pIC50 (MCF7 [12]): 5.90

Structure (SMILES): CC[C@@]12CCCN3CCc4c(n(c5ccccc45)[C@H](c4ccc5c(c4)[C@@]46CCN7CCC[C@]8(CC[C@]4(C[C@@H]8C(=O)OC)N5)[C@H]76)C1)[C@H]32
pIC50 (KB [13]): 5.11

Structure (SMILES): CCO[C@]1(C)C[C@@H]2CN(CCc3c([nH]c4ccccc34)[C@@](C(=O)OC)(c3cc4c(cc3OC)N(C)C3[C@]45CCN4CC=C[C@@](CC)([C@@H](OC(C)=O)[C@]3(O)C(=O)OC)[C@H]45)C2)C1 (some centres undefined)
Activity (LS180 [14]): 67.8% | Activity (LS180 [15]): 40.7%

pIC50 (KB [16]): 6.00 | pIC50 (K562/A02): 5.33
Structure (SMILES): COc1ccc2[nH]cc(C(=O)C(=O)N[C@@H]3c4cc5c(cc4[C@@H](c4cc(OC)c(OC)c(OC)c4)[C@H]4C(=O)OC[C@@H]43)OCO5)c2c1
IC50 at 2 h [17]: 26.1 µM | IC50 at 2 h [18]: 15.1 µM

pIC50 (HeLa): < 4.00
Structure (SMILES): O=Cc1c[nH]c2ccccc12 [3-FORMYLINDOLE]

pIC50 (A2780): 5.03
Structure (SMILES): Fc1ccc(C2=NCc3c([nH]c4ccccc34)S2)cc1

Structure (SMILES): CC1(C)C([C@@H](Cc2c[nH]c3ccccc23)C(=O)OCc2ccccc2)C(=O)[C@@H]2Cc3c([nH]c4ccccc34)CN21 (some centres undefined)
Activity (PC-3 [19]): 50% | Activity (PC-3 [20]): 40%

Structure (SMILES): CCC1CN(C)[C@H]2Cc3c([nH]c4ccccc34)[C@@H](n3c4c(c5c(OC)c([C@H]6C[C@H]7[C@H](CC)CN(C)[C@@H](Cc8c6[nH]c6ccccc86)[C@H]7C(=O)OC)ccc53)CCN3C[C@H]5CC[C@H]4[C@H]3[C@@H]5CC)C[C@@H]1[C@@H]2C(=O)OC (single isomer, unassigned)
pIC50 (HepG2 [21]): 4.90 | pIC50 (MCF7 [22]): 4.95 | pIC50 (HT-29 [23]): 4.94 | pIC50 (A549 [24]): 4.99

Structure (SMILES): CC(=O)O[C@]1(C)CO[C@@]23CC[C@@]4(C)[C@@](O)(CC[C@H]5Cc6c([nH]c7cc(Cl)ccc67)[C@@]54C)C2=CC(=O)[C@@H]1O3
pIC50 (CWR22R): 5.42 | pIC50 (PC-3 [25]): 5.31
